Experimental findings from patent publication US11753445B2, “Therapeutic peptides” (COHBAR, INC., priority 2016, dated 2023) are described below.

Type in all cases: cell-based
Assay [1] deals with 3T3-L1 Adipocytes. The assay is described as follows: Free fatty acid levels in cultured mouse 3T3-L1 adipocytes, isoproterenol stimulated (Example 17). Conditions: isoproterenol 1 nM. As to the method: Mouse 3T3-L1 cells were seeded at a density between 1,000-20,000 cells per well on 96-well, 48-well, or 24-well plates in Pre-adipocyte Medium (Zen-Bio, Durham, N.C.) and grown to confluence at 37° C. in a humidified atmosphere of 5% CO2/95% air. Two days after confluence, cells were placed in Adipocyte Differentiation Medium (Zen-Bio, Durham, N.C.) and cultured for three additional days at 37° C. in a humidified atmosphere of 5% CO2/95% air. The culture media was then replaced with Adipocyte Maintenance Medium (Zen-Bio) and the cells were maintained for an additional 9-14 days at 37° C. in a humidified atmosphere of 5% CO2/95% air with partial medium replacement every other day. Following 12-17 days of differentiation, test peptides were added at a final concentration of 25-50 μM and incubated for 18-20 hours in Adipocyte Maintenance Medium at 37° C. in a humidified atmosphere of 5% CO2/95%. After the media incubation, media was removed and exchanged with Assay Buffer (Zen-Bio) containing isoproterenol (1 nM) (added to all samples except untreated controls) and the test peptides. Cells were incubated for a further 3 hours at 37° C. in a humidified atmosphere of 5% CO2/95%. Free fatty acid concentrations in the media were determined using a Free Fatty Acid Assay Kit (Zen-Bio) according to the manufacturer's instructions using a plate reader (540 nm).
Absorbance values were corrected for untreated background and expressed relative to isoproterenol treated cells. Treatment with isoproterenol (1 nM) alone was used as the free fatty acid level stimulatory control. The relative standard deviation of the isoproterenol control was <10%. […] Free fatty acid levels for insulin (100 nM) treatment were <5% of the isoproterenol control value.

Assay [2] has as its system 3T3-L1 Adipocytes. The assay is described as follows: Free fatty acid levels in cultured mouse 3T3-L1 adipocytes, isoproterenol stimulated (Example 2). The following applies: test peptides 25 μM; isoproterenol 1 nM. The procedure, abridged: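 3T3-L1 cells differentiated 12–17 days into adipocytes, then exposed to test peptides at 25 μM final for 18–20 h, then 1 h, then 3 h with isoproterenol (1 nM) at 37 °C. Free fatty acids in the medium measured colorimetrically at 540 nm, corrected for untreated background and expressed relative to isoproterenol-only cells.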

Assay [3] has as its system 3T3-L1 Adipocytes. The assay is described as follows: Free fatty acid levels in cultured mouse 3T3-L1 adipocytes, forskolin stimulated (Example 3). The following applies: test peptides 25 μM; forskolin 1 μM. How it is done: Mouse 3T3-L1 cells were seeded at 1,000-20,000 cells per well on 96-well, 48-well, or 24-well plates in Pre-adipocyte Medium (Zen-Bio, Durham, N.C.) and grown to confluence at 37° C. in a humidified atmosphere of 5% CO2/95% air. Two days after confluence, cells were placed in Adipocyte Differentiation Medium (Zen-Bio, Durham, N.C.) and cultured for three additional days at 37° C. in a humidified atmosphere of 5% CO2/95% air. The culture media was then replaced with Adipocyte Maintenance Medium (Zen-Bio) and the cells were maintained for an additional 9-14 days at 37° C. in a humidified atmosphere of 5% CO2/95% air with partial medium replacement every other day. Following 12-17 days of differentiation, test peptides were added at a final concentration of 25 μM and incubated for 18-20 hours in Adipocyte Maintenance Medium at 37° C. in a humidified atmosphere of 5% CO2/95%. After 18-20 hours, the media was exchanged with fresh Adipocyte Maintenance Medium containing test peptides and incubated for 1 h at 37° C. in a humidified atmosphere of 5% CO2/95%. After 1 h media was exchanged with Assay Buffer (Zen-Bio) containing forskolin (1 μM) (added to all samples except untreated controls) and test peptides. Cells were incubated for a further 3 hours at 37° C. in a humidified atmosphere of 5% CO2/95%. Free fatty acid concentrations in the media were determined using a Free Fatty Acid Assay Kit (Zen-Bio) according to the manufacturer's instructions using a plate reader (540 nm). Absorbance values were corrected for untreated background and expressed relative to forskolin treated cells. Treatment with forskolin (1 μM) alone was used as the free fatty acid level stimulatory control. The relative standard deviation of the forskolin control was <10%. […] Free fatty acid levels for insulin (100 nM) treatment were <9% of the forskolin control value.

Assay [4] has as its system Human Primary Adipocytes. The assay is described as follows: Free fatty acid levels in cultured human primary adipocytes, forskolin stimulated (Example 5). The following applies: test peptides 25 μM; forskolin 1 μM. How it is done: Human primary adipocytes were seeded at 5,000-100,000 cells per well on 96-well, 48-well, or 24-well plate in Pre-adipocyte Medium (Zen-Bio, Durham, N.C.) and grown to confluence at 37° C. in a humidified atmosphere of 5% CO2/95% air. Two days after confluence, cells were placed in Adipocyte Differentiation Medium (Zen-Bio, Durham, N.C.) and cultured for three additional days at 37° C. in a humidified atmosphere of 5% CO2/95% air. The culture media was then replaced with Adipocyte Maintenance Medium (Zen-Bio) and the cells were maintained for an additional 11-21 days at 37° C. in a humidified atmosphere of 5% CO2/95% air with partial medium replacement every other day. Following 14-24 days of differentiation, test peptides were added at a final concentration of 25 μM and incubated for 18-20 hours in Adipocyte Maintenance Medium at 37° C. in a humidified atmosphere of 5% CO2/95%. After 18-20 hours, the media was exchanged with fresh Adipocyte Maintenance Medium containing test peptides and incubated for 1 h at 37° C. in a humidified atmosphere of 5% CO2/95%. After 1 h media was exchanged with Assay Buffer (Zen-Bio) containing forskolin (1 μM) (added to all samples except untreated controls) and test peptides. Cells were incubated for a further 3 hours at 37° C. in a humidified atmosphere of 5% CO2/95%. Free fatty acid concentrations in the media were determined using a Free Fatty Acid Assay Kit (Zen-Bio) according to the manufacturer's instructions using a plate reader (540 nm). Absorbance values were corrected for untreated background and expressed relative to forskolin treated cells. Treatment with forskolin (1 μM) alone was used as the free fatty acid level stimulatory control. The relative standard deviation of the forskolin control was <20%. […] Free fatty acid levels for insulin (100 nM) treatment were <8% of the forskolin control value.

Ends that are not written are not given here. * marks the point of attachment. Biotin = O=C1N[C@H]2[C@H](CS[C@H]2CCCCC(=O)*)N1

With “358 (Biotin-RWQEMNYIFYPR) [compound 358]”, in assay [1] (Peptide Concentration 25 μM), the “Free Fatty Acid Levels in 3T3-L1 Adipocytes Expressed as a Percent of Isoproterenol Control: Percent of Control Value” worked out at 60.8%.
On the same count and under the same terms, the value for “359 (RWQEMNYIFYPRK-biotin; not fully specified (residue 13); printed as RWQEMNYIFYPRK-(Biotin)) [compound 359]” was 34.8%.
“367 (Biotin-KRWQEMNYIFYPR) [compound 367]”: the “Free Fatty Acid Levels in 3T3-L1 Adipocytes Expressed as a Percent of Isoproterenol Control: Percent of Control Value” in assay [1] (Peptide Concentration 50 μM) was 59.0%.
The same measure, in the same setting: the result for 368 (PEG600-KNYIFYPR) [compound 368] reads 70.0%.
In the case of H-MRWQEMGYIFYPRN-OH [compound 203], the “Free Fatty Acid Levels in 3T3-L1 Adipocytes Expressed as a Percent of Isoproterenol Control: Percent of Control Value” in assay [2] was 52.9%. In addition, the “Free Fatty Acid Levels in 3T3-L1 Adipocytes Expressed as a Percent of Forskolin Control: Percent of Control Value” in assay [3] is reported as 54.5%. Also, in assay [4], the “Free Fatty Acid Levels in Human Primary Adipocytes Expressed as a Percent of Forskolin Control: Percent of Control Value” was 75.2%.
As to H-MRWQEMGYIFYPRQ-OH [compound 204], the “Free Fatty Acid Levels in 3T3-L1 Adipocytes Expressed as a Percent of Isoproterenol Control: Percent of Control Value” in assay [2] came to 38.8%. The “Free Fatty Acid Levels in 3T3-L1 Adipocytes Expressed as a Percent of Forskolin Control: Percent of Control Value” in assay [3] is recorded as 57.3%. For the same substance, the “Free Fatty Acid Levels in Human Primary Adipocytes Expressed as a Percent of Forskolin Control: Percent of Control Value” in assay [4] is listed as 94.3%.
For H-MRWQEMGYIFYPRQLR-OH [compound 214], the “Free Fatty Acid Levels in 3T3-L1 Adipocytes Expressed as a Percent of Isoproterenol Control: Percent of Control Value” in assay [2] was determined as 52.3%. Further, in assay [3], the “Free Fatty Acid Levels in 3T3-L1 Adipocytes Expressed as a Percent of Forskolin Control: Percent of Control Value” is 50.2%. The “Free Fatty Acid Levels in Human Primary Adipocytes Expressed as a Percent of Forskolin Control: Percent of Control Value” in assay [4] amounted to 89.9%.
